Laboratory results from PubChem BioAssay AID330 (DTP/NCI, 2004).
“And” between values parts separate entries of the source, which are not always exact repeats. Equal values may be shown once. Toxic doses and inconclusive results are not listed.

Test system: P388 leukemia ip, CD2F1 mice, survival T/C
Experiment: NCI In Vivo Anticancer Drug Screen. Data for tumor model P388 Leukemia (intraperitoneal) in CD2F1 (CDF1) mice
Settings: endpoint: median survival time, higher = longer survival
Outline: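 Mice carrying the transplanted tumor received test compound or vehicle. Survival was recorded in each group, and the value is the treated-group measurement divided by that of the vehicle-treated control group.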

[1] = dose: 50.0 mg/kg/injection, schedule: Q01DX009 (ip), vehicle: saline with Tween-80
[2] = dose: 100.0 mg/kg/injection, schedule: Q01DX009 (ip), vehicle: saline with Tween-80
[3] = dose: 200.0 mg/kg/injection, schedule: Q01DX009 (ip), vehicle: saline with Tween-80

Which results are given for `O=[C-]c1ccccc1[C-]=O.[I][Ni+2][I]`?
T/C (dose: 6.25 mg/kg/injection, schedule: Q01DX005 (ip), vehicle: saline): 94 % of control; T/C (dose: 12.5 mg/kg/injection, schedule: Q01DX005 (ip), vehicle: saline): 94 % of control; T/C (dose: 25.0 mg/kg/injection, schedule: Q01DX005 (ip), vehicle: saline): 110 % of control

How did the T/C [1] turn out when `CC1(C)OC(=O)C(CCc2ccncc2)(CCc2ccncc2)C(=O)O1` was run?
The T/C was 115 % of control.

What about the T/C [2] of the same compound?
The T/C was 104 % of control.

What about the T/C [3] of the same compound?
Its T/C is 106 % of control.

For `N=c1ccn2c(n1)OC1C(O)C(COS(=O)OC3C(CO)OC4C3Oc3nc(=N)ccn34)OC12` (stereo not given), which T/C [3] is on record?
The T/C was 112 % of control.

How did the T/C (dose: 3.12 mg/kg/injection, schedule: Q04DX003 (ip), vehicle: saline) turn out when `CN(C)CCCCCC[N+](C)(C)Cc1ccc(C[N+](C)(C)CCCCCC[N+](C)(C)Cc2ccc(CCl)cc2)cc1` was run?
Its T/C is 108 % of control.

What about the T/C (dose: 6.25 mg/kg/injection, schedule: Q04DX003 (ip), vehicle: saline) of the same compound?
Its T/C is 106 % of control.

And the T/C (dose: 12.5 mg/kg/injection, schedule: Q04DX003 (ip), vehicle: saline)?
The T/C was 97 % of control.

How did the T/C (dose: 25.0 mg/kg/injection, schedule: Q04DX003 (ip), vehicle: saline) turn out when `OCCN1CCN(c2c3ccccc3nc3ccccc23)CC1` was run?
Its T/C is 100 % of control.

And the T/C (dose: 50.0 mg/kg/injection, schedule: Q04DX003 (ip), vehicle: saline)?
Its T/C is 100 % of control.

What does the source list for `O=C(O)P(=O)(O)O`?
T/C (dose: 50.0 mg/kg/injection, schedule: Q01DX009 (ip), vehicle: water): 95 % of control; T/C (dose: 100.0 mg/kg/injection, schedule: Q01DX009 (ip), vehicle: water): 103 % of control; T/C (dose: 200.0 mg/kg/injection, schedule: Q01DX009 (ip), vehicle: water): 100 % of control

Which results are given for `O=C(Nc1cccc2c(OC(=O)C(Cl)Cl)c(N=Nc3ccc(S(=O)(=O)Nc4nccs4)cc3)cc(N=Nc3ccc(S(=O)(=O)Nc4nccs4)cc3)c12)C(Cl)Cl`?
T/C [1]: 109 % of control and 100 % of control and 104 % of control; T/C [2]: 108 % of control and 103 % of control and 106 % of control; T/C [3]: 107 % of control

What does the source list for `CN1CCN=C1c1ccc(NC(=O)c2ccc(C(=O)Nc3ccc(C4=NCCN4C)cc3)c(N)c2)cc1`?
T/C (dose: 1.32 mg/kg/injection, schedule: Q01DX009 (ip), vehicle: saline): 120 % of control; T/C (dose: 3.0 mg/kg/injection, schedule: Q01DX009 (ip), vehicle: saline): 150 % of control; T/C (dose: 5.0 mg/kg/injection, schedule: Q04DX003 (ip), vehicle: saline with Tween-80): 95 % of control; T/C (dose: 10.0 mg/kg/injection, schedule: Q04DX003 (ip), vehicle: saline with Tween-80): 95 % of control; T/C (dose: 20.0 mg/kg/injection, schedule: Q04DX003 (ip), vehicle: saline with Tween-80): 90 % of control

Which results are given for `NC(=S)COc1ccccc1`?
T/C [1]: 105 % of control; T/C [2]: 101 % of control; T/C [3]: 105 % of control

Which results are given for `Cc1cc(O)c(C(c2ccccc2)c2c(O)cc(C)[nH]c2=O)c(=O)[nH]1`?
T/C (dose: 25.0 mg/kg/injection, schedule: Q01DX009 (ip), vehicle: saline with Tween-80): 90 % of control; T/C [1]: 91 % of control; T/C [2]: 86 % of control

What does the source list for `COc1cc(OC)c(C(=O)O)cc1C(C)=O`?
T/C [1]: 105 % of control; T/C [2]: 115 % of control; T/C [3]: 96 % of control

`CCC1N=C(N)N=C(N)N1c1ccc(Cl)c(Cl)c1` (stereo not given) was tested. Which T/C (dose: 3.12 mg/kg/injection, schedule: Q01DX005 (ip), vehicle: Klucel (hydroxypropylcellulose) (HPC)) did it give?
Its T/C is 104 % of control and 96 % of control.

What about the T/C (dose: 6.25 mg/kg/injection, schedule: Q01DX005 (ip), vehicle: Klucel (hydroxypropylcellulose) (HPC)) of the same compound?
Its T/C is 102 % of control and 105 % of control and 107 % of control.

What about the T/C (dose: 12.5 mg/kg/injection, schedule: Q01DX005 (ip), vehicle: Klucel (hydroxypropylcellulose) (HPC)) of the same compound?
Its T/C is 113 % of control and 114 % of control and 97 % of control.

What about the T/C (dose: 25.0 mg/kg/injection, schedule: Q01DX005 (ip), vehicle: Klucel (hydroxypropylcellulose) (HPC)) of the same compound?
The T/C was 111 % of control and 114 % of control.

What does the source list for `C1CC(CCC2CCNCC2)CCN1`?
T/C (dose: 25.0 mg/kg/injection, schedule: Q01DX009 (ip), vehicle: saline): 96 % of control; T/C (dose: 50.0 mg/kg/injection, schedule: Q01DX009 (ip), vehicle: saline): 97 % of control

`COc1cc(/C=C2\C(=O)C=C(C)CC2(C)C)ccc1O` was tested. Which T/C (dose: 50.0 mg/kg/injection, schedule: Q04DX003 (ip), vehicle: saline with Tween-80) did it give?
Its T/C is 95 % of control.

What about the T/C (dose: 100.0 mg/kg/injection, schedule: Q04DX003 (ip), vehicle: saline with Tween-80) of the same compound?
The T/C was 90 % of control.
